US5460801A, “Inhibition of small cell lung cancer cell growth in vivo using monoclonal antibody” (The United States of America as represented by the …, priority 1993, dated 1995)
“And” between values parts separate entries of the source, which are not always exact repeats. Equal entries are not always repeated. Square brackets hold non-standard residues; d marks the D form. Ends that are not written are not given here. Peptide text beside a SMILES is read from it. pGlu = O=C1CC[C@@H](C(=O)O)N1

Assays:
monoclonal antibody 2A11 = assay: Indirect radioimmunoassay: 2A11 cross reactivity with solid phase synthetic peptides; type: binding, mouse; details: for % 125I-PROTEIN A BOUND (% cross reactivity with 2A11): cpm minus BSA background relative to bombesin; for % 125I-PROTEIN A BOUND (% cross reactivity with 2A11) / CPM 125I-PROTEIN A BOUND: peptides solid phased at 500 ng/well; for CPM 125I-PROTEIN A BOUND: 2A11 10 μg/ml, detection with rabbit anti mouse IgG and 125I-protein A; for 2A11 binding to the solid phase peptide (in words): indirect RIA / titration of 2A11
Protocol: Peptides (all purchased from Peninsula Laboratories) were adsorbed to 96 well polyvinyl chloride microtiter plates (Dynatech) by adding 0.05 ml of a 10 μg/ml peptide in phosphate buffered saline (PBS) for 1 hr., washing in PBS, then blocking with a 1% bovine serum albumin (BSA) PBS solution. Purified 2A11 from ascites fluid (10 μg/ml) was added, incubated, washed three times, then protein A affinity purified rabbit anti-mouse IgG (Cappel Laboratories) 1.6 μg/ml) was added, incubated, washed three times, then ^125 I-protein A (Pharmacia, labeled by chloramine T method to 40-50 μCi/μg) 40,000 cpm/well was added, incubated, washed 8× and then the wells cut out and counted in a Beckman gamma counter. All incubations were for 1 hr. at room temperature in PBS with 1% BSA in 0.025 ml volumes.
Percent cross reactivity was determined as follows:
% cross reactivity--cpm^125 I-protein A bound on peptide target minus cpm bound on BSA target divided by crop bound by bombesin minus BSA background times 100. Typically, the bombesin target caused 2A11 binding sufficient to bind about 32,776 cpm of ^125 I-protein A while the BSA background bound about 30 cpm.

solid phase 2A11 = assay: Quantitative inhibition assay: peptide inhibition of 125I-Tyr4-BN binding to solid phase 2A11; parameters: species or system mouse; details: for PERCENT INHIBITION of 125I-Tyr4-BN binding to solid phase 2A11: peptides at 1 nM, mean ± SD of 3 determinations
Protocol: Antibodies 2A11 or MOPC 21 were adsorbed to 96 well polyvinylchloride plates at 500 ng/well followed by saturation with 1% BSA-PBS. Unlabeled bombesin was added to triplicate wells covering a range from 1-1,000 pg and incubated for 1 hr. at room temperature. Without removing the unlabeled bombesin samples, about 12,000 cpm of ^125 I-Tyr^4 -bombesin was added to each well and incubated overnight at 4° C., washed 8× and counted. All additions were in 1% BSA-PBS in a 25 μl volume, and the washes were with 1% BSA-PBS 0.2 ml/well.

NCI-N592 = assay: Agarose clonogenic assay in serum-free HITES medium, NCI-N592; type: cell-based, human; details: 50 nM exogenous BN; SCLC lines NCI-N417D and NCI-N592
Protocol: Because of its poor colony forming efficiency in serum-free medium, NCI-N417 culture plates were supplemented with 0.1% BSA to enhance cell growth, NCI-N592 cells were seeded at 5×10^4 per plate while NCI-N417 cells were plated at 1×10^4. Plates were pre-screened to verify single cell distribution of test cells and assessed 21 days later for colony formation. Cell aggregates of greater than 50 cells were scored positive as definitive colony growth.

[1] = system: 2A11 staining of BLP in paraffin embedded tissue; assay: Immunohistochemical staining with 2A11: pre-absorption specificity test; details: peptide 100 μg/ml; 2A11 at 10 μg/ml
Text: Antibody 2A11 was also used for immunohistochemical localization of BLP in paraffin embedded tissue. Using rabbit antisera it has been reported that chick proventriculus and human fetal bronchioles are rich in BN-like immunoreactivity. Use was, therefore, made of immunohistochemical staining technique of Hsu, et al. J. Histochem. Cytochem. 29, 557-5--1981, in combination with 2A11 for the light microscopic detection of BLP. Bombesinergic cells were found in chick proventriculus, human fetal bronchioles and a human SCLC. Immune staining was performed using 2A11 at 10 μg/ml.

CC[C@H](C)[C@H](NC(=O)[C@H](Cc1ccccc1)NC(=O)[C@H](C)NC(=O)[C@H](CC(=O)O)NC(=O)[C@H](CCCCN)NC(=O)[C@H](CO)NC(=O)[C@@H]1CCCN1C(=O)[C@@H]1CCC(=O)N1)C(=O)NCC(=O)N[C@@H](CC(C)C)C(=O)N[C@@H](CCSC)C(N)=O [ELEDOISIN, eledoisin] ([pGlu]PSKDAFIGLM-NH2)
% 125I-PROTEIN A BOUND (% cross reactivity with 2A11) (monoclonal antibody 2A11): < 0.02%
% 125I-PROTEIN A BOUND (% cross reactivity with 2A11) (monoclonal antibody 2A11; listed as eledoisin): less than 0.3%
CPM 125I-PROTEIN A BOUND (monoclonal antibody 2A11): 24 CPM

CSCC[C@H](NC(=O)[C@H](Cc1ccccc1)NC(=O)[C@H](Cc1c[nH]cn1)NC(=O)CNC(=O)[C@@H](NC(=O)[C@H](C)NC(=O)[C@H](Cc1c[nH]c2ccccc12)NC(=O)[C@H](CCC(N)=O)NC(=O)[C@@H]1CCC(=O)N1)C(C)C)C(N)=O [Litorin]
PERCENT INHIBITION of 125I-Tyr4-BN binding to solid phase 2A11 (solid phase 2A11): 56.5 ± 6.2%

CSCC[C@H](NC(=O)[C@H](Cc1ccccc1)NC(=O)[C@H](Cc1c[nH]cn1)NC(=O)CNC(=O)[C@@H](NC(=O)[C@H](C)NC(=O)[C@H](Cc1c[nH]c2ccccc12)NC(=O)[C@H](CCC(N)=O)NC(=O)[C@@H]1CCCN1C(=O)[C@@H](NC(=O)[C@@H]1CCC(=O)N1)C(C)C)C(C)C)C(N)=O [Ranatensin] ([pGlu]VPQWAVGHFM-NH2)
PERCENT INHIBITION of 125I-Tyr4-BN binding to solid phase 2A11 (solid phase 2A11): 54.0 ± 8.4%

CSCC[C@H](NC(=O)[C@H](CC(C)C)NC(=O)CNC(=O)[C@H](Cc1ccccc1)NC(=O)[C@H](Cc1ccccc1)NC(=O)[C@H](CCC(N)=O)NC(=O)[C@H](CCC(N)=O)NC(=O)[C@@H]1CCCN1C(=O)[C@H](CCCCN)NC(=O)[C@@H]1CCCN1C(=O)[C@@H](N)CCCNC(=N)N)C(N)=O [SUBSTANCE P, substance P]
% 125I-PROTEIN A BOUND (% cross reactivity with 2A11) (monoclonal antibody 2A11): < 0.02%
% 125I-PROTEIN A BOUND (% cross reactivity with 2A11) (monoclonal antibody 2A11; listed as substance P): less than 0.3%
2A11 binding to the solid phase peptide (in words) (monoclonal antibody 2A11): insignificant 2A11 binding
CPM 125I-PROTEIN A BOUND (monoclonal antibody 2A11): 31 CPM
inhibition of 125I-Tyr4-BN/2A11 binding (in words) (solid phase 2A11; same concentration range as BN standard curve): incapable of inhibiting

Alytesin
PERCENT INHIBITION of 125I-Tyr4-BN binding to solid phase 2A11 (solid phase 2A11): 99.0 ± 5.1%

GRP^14-27: fragment 14-27 of gastrin releasing peptide (MYPRGNHWAVGHLM; ends and bridges not checked; UniProt P07492 37-50, looked up, fragment)
% 125I-PROTEIN A BOUND (% cross reactivity with 2A11) (monoclonal antibody 2A11): 102%
CPM 125I-PROTEIN A BOUND (monoclonal antibody 2A11): 33,379 CPM
PERCENT INHIBITION of 125I-Tyr4-BN binding to solid phase 2A11 (solid phase 2A11): 104.3 ± 7.7%

GRP^20-27: C-terminal octapeptide fragment 20-27 of gastrin releasing peptide
PERCENT INHIBITION of 125I-Tyr4-BN binding to solid phase 2A11 (solid phase 2A11; 0.001 µM): 98.5 ± 2.4% and 98.5%

KASSININ
% 125I-PROTEIN A BOUND (% cross reactivity with 2A11) (monoclonal antibody 2A11): < 0.02%
% 125I-PROTEIN A BOUND (% cross reactivity with 2A11) (monoclonal antibody 2A11; listed as kassinin): less than 0.3%
CPM 125I-PROTEIN A BOUND (monoclonal antibody 2A11): 37 CPM

PHYSALAEMIN
% 125I-PROTEIN A BOUND (% cross reactivity with 2A11) (monoclonal antibody 2A11): < 0.02%
% 125I-PROTEIN A BOUND (% cross reactivity with 2A11) (monoclonal antibody 2A11; listed as physalaemin): less than 0.3%
CPM 125I-PROTEIN A BOUND (monoclonal antibody 2A11): 28 CPM

bombesin
% 125I-PROTEIN A BOUND (% cross reactivity with 2A11) (monoclonal antibody 2A11): 100%
2A11 binding to the solid phase peptide (in words) (monoclonal antibody 2A11): maximal binding
CPM 125I-PROTEIN A BOUND (monoclonal antibody 2A11; listed as BOMBESIN): 32,776 CPM
CPM 125I-PROTEIN A BOUND (monoclonal antibody 2A11; listed as bombesin): about 32,776 CPM
PERCENT INHIBITION of 125I-Tyr4-BN binding to solid phase 2A11 (solid phase 2A11): 100.0 ± 4.7%
effect of exogenous BN on 2A11 growth inhibition (in words) (NCI-N592): nullification of the 2A11 effect
effect of pre-absorption of the antibody solution on 2A11 staining (in words) [1]: staining inhibited

gastrin-releasing peptide [GASTRIN RELEASING PEPTIDE (GRP)]
% 125I-PROTEIN A BOUND (% cross reactivity with 2A11) (monoclonal antibody 2A11): 102%
2A11 binding to the solid phase peptide (in words) (monoclonal antibody 2A11): maximal binding
CPM 125I-PROTEIN A BOUND (monoclonal antibody 2A11): 33,405 CPM
PERCENT INHIBITION of 125I-Tyr4-BN binding to solid phase 2A11 (solid phase 2A11): 101.0 ± 3.4%

neurotensin
effect of pre-absorption of the antibody solution on 2A11 staining (in words) [1]: no inhibition of staining
